Measurements reported in ChEMBL document CHEMBL5380773, “Novel Feleucin-K3-Derived Peptides Modified with Sulfono-γ-AA Building Blocks Targeting Pseudomonas aeruginosa and Methicillin-Resistant Staphylococcus aureus Infections” (J Med Chem, 2023).
Numbered stars: 1 amine (or outer) side, 2 acyl side, 3 side chain; on linkers, the order of the positions; unused ones are H or OH. Square brackets hold non-standard residues; d marks the D form. Peptide text beside a SMILES is read from it. * marks the point of attachment. X21 = CC(C)c1cc(C(C)C)c(S(=O)(=O)N(CC(N)=O)C[C@H](Cc2ccccc2)N*)c(C(C)C)c1; X14 = CC(C)C[C@@H](CN(CC(N)=O)S(=O)(=O)c1c(C(C)C)cc(C(C)C)cc1C(C)C)N*; X9 = NC(=O)CN(C[C@H](Cc1ccccc1)N*)S(=O)(=O)c1ccccc1[N+](=O)[O-]; X17 = CC(C)C[C@@H](CN(CC(N)=O)S(=O)(=O)c1ccccc1[N+](=O)[O-])N*; X13 = NC(=O)CN(C[C@H](Cc1ccccc1)N*)S(=O)(=O)c1ccc(Br)cc1; X18 = NC(=O)CN(C[C@H](Cc1ccccc1)N*)S(=O)(=O)c1ccc(Cl)cc1; X19 = COc1ccc(S(=O)(=O)N(CC(N)=O)C[C@H](Cc2ccccc2)N*)cc1; Benzenesulfonyl(2-NO2) = O=[N+]([O-])c1ccccc1S(=O)(=O)*; X15 = NC(=O)CN(C[C@H](Cc1ccccc1)N*)S(=O)(=O)c1ccc(I)cc1; X7 = NC(=O)CN(C[C@H](Cc1ccccc1)N*)S(=O)(=O)c1cccc(Cl)c1; X16 = CC(C)C[C@@H](CN(CC(N)=O)S(=O)(=O)c1ccc(Cl)cc1)N*; X25 = CC(C)C[C@@H](CN(CC(N)=O)S(=O)(=O)c1cccc(Cl)c1)N*; X22 = CC(C)C[C@@H](CN(CC(N)=O)S(=O)(=O)c1ccc(F)cc1)N*; X6 = COc1ccc(S(=O)(=O)N(CC(N)=O)C[C@H](CC(C)C)N*)cc1; X8 = CC(C)C[C@@H](CN(CC(N)=O)S(=O)(=O)c1ccc(I)cc1)N*; Benzenesulfonyl(4-OMe) = COc1ccc(S(=O)(=O)*)cc1; Benzenesulfonyl(4-F) = O=S(=O)(c1ccc(F)cc1)*; X5 = CC(C)c1cc(C(C)C)c(S(=O)(=O)*)c(C(C)C)c1; X3 = N[C@@H](Cc1ccccc1)CN(CC(=O)[*:2])[*:1]; X2 = CC(C)C[C@H](N)CN(CC(=O)[*:2])[*:1]; X10 = O=[N+]([O-])c1ccc(S(=O)(=O)*)cc1; Brosyl = O=S(=O)(c1ccc(Br)cc1)*; X20 = O=S(=O)(c1ccc(Cl)cc1)*; X4 = O=S(=O)(c1cccc(Cl)c1)*; X1 = O=S(=O)(c1ccc(I)cc1)*

System: Erythrocyte
Test: Hemolytic activity against mouse red blood cells incubated for 1 hr
Type: toxicity, cell-based

| Compound | MHC |
| --- | --- |
| CC(C)C[C@H](NC(=O)[C@H](CC(C)C)NC(=O)[C@H](CCCCN)NC(=O)[C@H](CCCCN)NC(=O)[C@H](CC(C)C)NC(=O)[C@H](CC(C)C)NC(=O)[C@H](CCCCN)NC(=O)CN(C[C@@H](N)Cc1ccccc1)S(=O)(=O)c1ccc(Cl)cc1)C(N)=O (X20-[X3]KLLKKLL-NH2) | 64 µg/mL |
| CC(C)C[C@H](NC(=O)[C@H](CC(C)C)NC(=O)[C@H](CCCCN)NC(=O)[C@H](CCCCN)NC(=O)[C@H](CC(C)C)NC(=O)[C@H](CC(C)C)NC(=O)[C@H](CCCCN)NC(=O)CN(C[C@@H](N)Cc1ccccc1)S(=O)(=O)c1ccc(F)cc1)C(N)=O ({Benzenesulfonyl(4-F)}-[X3]KLLKKLL-NH2) | 256 µg/mL |
| CC(C)C[C@@H](CN(CC(N)=O)S(=O)(=O)c1ccccc1[N+](=O)[O-])NC(=O)[C@H](CCCCN)NC(=O)[C@H](CCCCN)NC(=O)[C@H](CC(C)C)NC(=O)[C@H](CC(C)C)NC(=O)[C@H](CCCCN)NC(=O)[C@H](CC(C)C)NC(=O)[C@@H](N)Cc1ccccc1 (H-FLKLLKK-X17) | 256 µg/mL |
| CC(C)C[C@H](NC(=O)[C@H](CC(C)C)NC(=O)[C@H](CCCCN)NC(=O)[C@H](CC(C)C)NC(=O)[C@@H](N)Cc1ccccc1)C(=O)N[C@@H](CCCCN)C(=O)N[C@@H](CCCCN)C(=O)N[C@@H](Cc1ccccc1)CN(CC(N)=O)S(=O)(=O)c1ccc(I)cc1 (H-FLKLLKK-X15) | 128 µg/mL |
| CC(C)C[C@H](N)CN(CC(=O)N[C@@H](CCCCN)C(=O)N[C@@H](CC(C)C)C(=O)N[C@@H](CC(C)C)C(=O)N[C@@H](CCCCN)C(=O)N[C@@H](CCCCN)C(=O)N[C@@H](CC(C)C)C(=O)N[C@@H](CC(C)C)C(N)=O)S(=O)(=O)c1ccc([N+](=O)[O-])cc1 (X10-[X2]KLLKKLL-NH2) | 256 µg/mL |
| CC(C)C[C@H](N)CN(CC(=O)N[C@@H](CCCCN)C(=O)N[C@@H](CC(C)C)C(=O)N[C@@H](CC(C)C)C(=O)N[C@@H](CCCCN)C(=O)N[C@@H](CCCCN)C(=O)N[C@@H](CC(C)C)C(=O)N[C@@H](CC(C)C)C(N)=O)S(=O)(=O)c1cccc(Cl)c1 (X4-[X2]KLLKKLL-NH2) | 256 µg/mL |
| CC(C)C[C@H](NC(=O)[C@H](CC(C)C)NC(=O)[C@H](CCCCN)NC(=O)[C@H](CC(C)C)NC(=O)[C@@H](N)Cc1ccccc1)C(=O)N[C@@H](CCCCN)C(=O)N[C@@H](CCCCN)C(=O)N[C@@H](Cc1ccccc1)CN(CC(N)=O)S(=O)(=O)c1c(C(C)C)cc(C(C)C)cc1C(C)C (H-FLKLLKK-X21) | 32 µg/mL |
| CC(C)C[C@@H](CN(CC(N)=O)S(=O)(=O)c1c(C(C)C)cc(C(C)C)cc1C(C)C)NC(=O)[C@H](CCCCN)NC(=O)[C@H](CCCCN)NC(=O)[C@H](CC(C)C)NC(=O)[C@H](CC(C)C)NC(=O)[C@H](CCCCN)NC(=O)[C@H](CC(C)C)NC(=O)[C@@H](N)Cc1ccccc1 (H-FLKLLKK-X14) | 32 µg/mL |
| COc1ccc(S(=O)(=O)N(CC(=O)N[C@@H](CCCCN)C(=O)N[C@@H](CC(C)C)C(=O)N[C@@H](CC(C)C)C(=O)N[C@@H](CCCCN)C(=O)N[C@@H](CCCCN)C(=O)N[C@@H](CC(C)C)C(=O)N[C@@H](CC(C)C)C(N)=O)C[C@@H](N)CC(C)C)cc1 ({Benzenesulfonyl(4-OMe)}-[X2]KLLKKLL-NH2) | 256 µg/mL |
| COc1ccc(S(=O)(=O)N(CC(N)=O)C[C@H](CC(C)C)NC(=O)[C@H](CCCCN)NC(=O)[C@H](CCCCN)NC(=O)[C@H](CC(C)C)NC(=O)[C@H](CC(C)C)NC(=O)[C@H](CCCCN)NC(=O)[C@H](CC(C)C)NC(=O)[C@@H](N)Cc2ccccc2)cc1 (H-FLKLLKK-X6) | 256 µg/mL |
| CC(C)C[C@H](NC(=O)[C@H](CC(C)C)NC(=O)[C@H](CCCCN)NC(=O)[C@H](CC(C)C)NC(=O)[C@@H](N)Cc1ccccc1)C(=O)N[C@@H](CCCCN)C(=O)N[C@@H](CCCCN)C(=O)N[C@@H](Cc1ccccc1)CN(CC(N)=O)S(=O)(=O)c1cccc(Cl)c1 (H-FLKLLKK-X7) | 256 µg/mL |
| CC(C)C[C@H](NC(=O)[C@H](CC(C)C)NC(=O)[C@H](CCCCN)NC(=O)[C@H](CC(C)C)NC(=O)[C@@H](N)Cc1ccccc1)C(=O)N[C@@H](CCCCN)C(=O)N[C@@H](CCCCN)C(=O)N[C@@H](Cc1ccccc1)CN(CC(N)=O)S(=O)(=O)c1ccc(Cl)cc1 (H-FLKLLKK-X18) | 128 µg/mL |
| CC(C)C[C@H](NC(=O)[C@H](CC(C)C)NC(=O)[C@H](CCCCN)NC(=O)[C@H](CCCCN)NC(=O)[C@H](CC(C)C)NC(=O)[C@H](CC(C)C)NC(=O)[C@H](CCCCN)NC(=O)CN(C[C@@H](N)Cc1ccccc1)S(=O)(=O)c1ccccc1[N+](=O)[O-])C(N)=O ({Benzenesulfonyl(2-NO2)}-[X3]KLLKKLL-NH2) | 256 µg/mL |
| CC(C)C[C@@H](CN(CC(N)=O)S(=O)(=O)c1ccc(F)cc1)NC(=O)[C@H](CCCCN)NC(=O)[C@H](CCCCN)NC(=O)[C@H](CC(C)C)NC(=O)[C@H](CC(C)C)NC(=O)[C@H](CCCCN)NC(=O)[C@H](CC(C)C)NC(=O)[C@@H](N)Cc1ccccc1 (H-FLKLLKK-X22) | 256 µg/mL |
| CC(C)C[C@H](NC(=O)[C@H](CC(C)C)NC(=O)[C@H](CCCCN)NC(=O)[C@H](CCCCN)NC(=O)[C@H](CC(C)C)NC(=O)[C@H](CC(C)C)NC(=O)[C@H](CCCCN)NC(=O)CN(C[C@@H](N)Cc1ccccc1)S(=O)(=O)c1ccc([N+](=O)[O-])cc1)C(N)=O (X10-[X3]KLLKKLL-NH2) | 256 µg/mL |
| COc1ccc(S(=O)(=O)N(CC(=O)N[C@@H](CCCCN)C(=O)N[C@@H](CC(C)C)C(=O)N[C@@H](CC(C)C)C(=O)N[C@@H](CCCCN)C(=O)N[C@@H](CCCCN)C(=O)N[C@@H](CC(C)C)C(=O)N[C@@H](CC(C)C)C(N)=O)C[C@@H](N)Cc2ccccc2)cc1 ({Benzenesulfonyl(4-OMe)}-[X3]KLLKKLL-NH2) | 256 µg/mL |
| CC(C)C[C@H](NC(=O)[C@H](CC(C)C)NC(=O)[C@H](CCCCN)NC(=O)[C@H](CC(C)C)NC(=O)[C@@H](N)Cc1ccccc1)C(=O)N[C@@H](CCCCN)C(=O)N[C@@H](CCCCN)C(=O)N[C@@H](Cc1ccccc1)CN(CC(N)=O)S(=O)(=O)c1ccccc1[N+](=O)[O-] (H-FLKLLKK-X9) | 256 µg/mL |
| CC(C)C[C@H](NC(=O)[C@H](CC(C)C)NC(=O)[C@H](CCCCN)NC(=O)[C@H](CC(C)C)NC(=O)[C@@H](N)Cc1ccccc1)C(=O)N[C@@H](CCCCN)C(=O)N[C@@H](CCCCN)C(=O)N[C@@H](Cc1ccccc1)CN(CC(N)=O)S(=O)(=O)c1ccc(Br)cc1 (H-FLKLLKK-X13) | 256 µg/mL |
| CC(C)C[C@H](NC(=O)[C@H](CC(C)C)NC(=O)[C@H](CCCCN)NC(=O)[C@H](CCCCN)NC(=O)[C@H](CC(C)C)NC(=O)[C@H](CC(C)C)NC(=O)[C@H](CCCCN)NC(=O)CN(C[C@@H](N)Cc1ccccc1)S(=O)(=O)c1cccc(Cl)c1)C(N)=O (X4-[X3]KLLKKLL-NH2) | 128 µg/mL |
| CC(C)C[C@H](N)CN(CC(=O)N[C@@H](CCCCN)C(=O)N[C@@H](CC(C)C)C(=O)N[C@@H](CC(C)C)C(=O)N[C@@H](CCCCN)C(=O)N[C@@H](CCCCN)C(=O)N[C@@H](CC(C)C)C(=O)N[C@@H](CC(C)C)C(N)=O)S(=O)(=O)c1ccc(Cl)cc1 (X20-[X2]KLLKKLL-NH2) | 256 µg/mL |
| CC(C)C[C@@H](CN(CC(N)=O)S(=O)(=O)c1ccc(Cl)cc1)NC(=O)[C@H](CCCCN)NC(=O)[C@H](CCCCN)NC(=O)[C@H](CC(C)C)NC(=O)[C@H](CC(C)C)NC(=O)[C@H](CCCCN)NC(=O)[C@H](CC(C)C)NC(=O)[C@@H](N)Cc1ccccc1 (H-FLKLLKK-X16) | 256 µg/mL |
| CC(C)C[C@H](N)CN(CC(=O)N[C@@H](CCCCN)C(=O)N[C@@H](CC(C)C)C(=O)N[C@@H](CC(C)C)C(=O)N[C@@H](CCCCN)C(=O)N[C@@H](CCCCN)C(=O)N[C@@H](CC(C)C)C(=O)N[C@@H](CC(C)C)C(N)=O)S(=O)(=O)c1c(C(C)C)cc(C(C)C)cc1C(C)C (X5-[X2]KLLKKLL-NH2) | 32 µg/mL |
| CC(C)C[C@H](NC(=O)[C@H](CC(C)C)NC(=O)[C@H](CCCCN)NC(=O)[C@H](CCCCN)NC(=O)[C@H](CC(C)C)NC(=O)[C@H](CC(C)C)NC(=O)[C@H](CCCCN)NC(=O)CN(C[C@@H](N)Cc1ccccc1)S(=O)(=O)c1ccc(Br)cc1)C(N)=O (Brosyl-[X3]KLLKKLL-NH2) | 64 µg/mL |
| CC(C)C[C@H](NC(=O)[C@H](CC(C)C)NC(=O)[C@H](CCCCN)NC(=O)[C@H](CCCCN)NC(=O)[C@H](CC(C)C)NC(=O)[C@H](CC(C)C)NC(=O)[C@H](CCCCN)NC(=O)CN(C[C@@H](N)Cc1ccccc1)S(=O)(=O)c1ccc(I)cc1)C(N)=O (X1-[X3]KLLKKLL-NH2) | 32 µg/mL |
| CC(C)C[C@@H](CN(CC(N)=O)S(=O)(=O)c1ccc(I)cc1)NC(=O)[C@H](CCCCN)NC(=O)[C@H](CCCCN)NC(=O)[C@H](CC(C)C)NC(=O)[C@H](CC(C)C)NC(=O)[C@H](CCCCN)NC(=O)[C@H](CC(C)C)NC(=O)[C@@H](N)Cc1ccccc1 (H-FLKLLKK-X8) | 256 µg/mL |
| CC(C)C[C@@H](CN(CC(N)=O)S(=O)(=O)c1cccc(Cl)c1)NC(=O)[C@H](CCCCN)NC(=O)[C@H](CCCCN)NC(=O)[C@H](CC(C)C)NC(=O)[C@H](CC(C)C)NC(=O)[C@H](CCCCN)NC(=O)[C@H](CC(C)C)NC(=O)[C@@H](N)Cc1ccccc1 (H-FLKLLKK-X25) | 256 µg/mL |
| CC(C)C[C@H](N)CN(CC(=O)N[C@@H](CCCCN)C(=O)N[C@@H](CC(C)C)C(=O)N[C@@H](CC(C)C)C(=O)N[C@@H](CCCCN)C(=O)N[C@@H](CCCCN)C(=O)N[C@@H](CC(C)C)C(=O)N[C@@H](CC(C)C)C(N)=O)S(=O)(=O)c1ccccc1[N+](=O)[O-] ({Benzenesulfonyl(2-NO2)}-[X2]KLLKKLL-NH2) | 256 µg/mL |
| COc1ccc(S(=O)(=O)N(CC(N)=O)C[C@H](Cc2ccccc2)NC(=O)[C@H](CCCCN)NC(=O)[C@H](CCCCN)NC(=O)[C@H](CC(C)C)NC(=O)[C@H](CC(C)C)NC(=O)[C@H](CCCCN)NC(=O)[C@H](CC(C)C)NC(=O)[C@@H](N)Cc2ccccc2)cc1 (H-FLKLLKK-X19) | 256 µg/mL |
